Experimental data as given in patent publication US20230140838A9, “NOVEL ACTIVITY-BASED PROBES FOR NEUTROPHIL ELASTASE AND THEIR USE” (Takeda Pharmaceutical Company Limited, priority 2018, published 2023).

Tests used:
[1] = molecular target: T1, neutrophil elastase (NE) (Homo sapiens, UniProt P08246); assay: Recombinant protease labeling / fluorescent SDS-PAGE, neutrophil elastase; format: binding; settings: 0.1-1 μM probe
T1 construct: purchased Elastin Products Company
T1 sequence (P08246 30-267): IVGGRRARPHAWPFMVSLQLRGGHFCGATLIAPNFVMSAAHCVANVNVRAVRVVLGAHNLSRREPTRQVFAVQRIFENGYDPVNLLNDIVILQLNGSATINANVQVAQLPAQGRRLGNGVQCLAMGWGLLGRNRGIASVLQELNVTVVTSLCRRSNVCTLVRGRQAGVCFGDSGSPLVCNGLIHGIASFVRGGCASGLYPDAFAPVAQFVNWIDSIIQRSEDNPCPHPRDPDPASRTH

[2] = tested on: NE; assay: Ex vivo labeling of human colon mucosal biopsy lysates (ulcerative colitis vs healthy); format: binding
Description: (§1) Tubes were rocked overnight at 4° C.
Human mucosal biopsies were obtained from individuals during colonoscopy procedures at Hotel Dieu Hospital in Kingston, Ontario, Canada (Table 1). Patients were well-characterized individuals with active ulcerative colitis (UC) or healthy individuals undergoing routine colonoscopy for cancer screening. For UC patients, biopsies were obtained from sites of active inflammation. Written and verbal consent was obtained prior to enrolment and all protocols were approved by the Queen's University Human Ethics Committee. Fresh biopsies were washed in PBS and then snap frozen for protease analysis as above.

[3] = tested on: serine proteases in lysates prepared from mouse pancreas; assay: Ex vivo labeling of mouse pancreas lysates, in-gel fluorescence and immunoprecipitation; format: binding
Description: as §1

[4] = molecular target: T2, NE (Mus musculus, UniProt Q3UP87); format: binding
T2 sequence (Q3UP87 29-247 limits assumed): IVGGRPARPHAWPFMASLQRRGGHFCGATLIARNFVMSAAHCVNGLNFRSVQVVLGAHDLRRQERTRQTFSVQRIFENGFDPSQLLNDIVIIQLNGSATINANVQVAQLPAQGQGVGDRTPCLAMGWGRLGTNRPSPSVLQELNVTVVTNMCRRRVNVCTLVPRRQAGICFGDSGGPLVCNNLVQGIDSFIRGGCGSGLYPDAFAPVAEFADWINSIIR

[5] = tested on: NE
Description: PK105b or Cy5-V-DPP (0, 0.1, 0.5 or 1 μM) was added from a 100×DMSO stock, and reaction was left to occur at 37° C. for 30 minutes. Proteins were solubilized in 4× sample buffer (40% glycerol, 200 mM Tris-Cl [pH 6.8], 8% SDS, 0.04% bromophenol blue, 5% beta-mercaptoethanol), boiled for five minutes and resolved on a 15% SDS-PAGE gel. Probe labeling was detected by scanning the gel for Cy5 fluorescence on a Typhoon 5 flatbed laser scanner (GE Healthcare).
Bone marrow was obtained by flushing tibias and femurs from healthy C57BL/6J mice with PBS. Cells were washed and resuspended in PBS prior to sonication on ice. […] Total protein (60 μg, as measured by BCA assay, Pierce) was aliquoted in a total volume of 20 μl PBS, and probe labeling and SDS-PAGE was carried out as above.
Fluorescent Gels were Transferred to Nitrocellulose Membranes and Blotted Using the Turbo Blot system (BioRad). […] Binding was detected by scanning with the IRLong filter on a Typhoon 5 flatbed laser scanner (GE Healthcare).
PK105b-labeled lysates (boiled in sample buffer for five minutes) were divided into input and immunoprecipitation (IP) samples (100 μg each). […] Supernatants were then analyzed, alongside the input sample, by fluorescent SDS-PAGE as above. […]

[6] = molecular target: T2, NE; format: binding; remark: listed apart in the source

With `CCC(NC(=O)[C@@H]1CC2CCCCC2N1C(=O)[C@H](CCS(C)(=O)=O)NC(=O)[C@H](CCCCOCc1ccccc1)NC(=O)CCCCCN1/C(=C/C=C/C=C/C2=[N+](CC)c3ccc(S(=O)(=O)[O-])cc3C2(C)C)C(C)(C)c2cc(S(=O)(=O)O)ccc21)P(=O)(Oc1ccccc1)Oc1ccccc1` (stereo partly shown) [PK105b] as the molecule, how does the “potency of NE labeling compared between probes” value [1] read?
The value was “more potent than Cy5-V-DPP”.

And the “identity of labeled bands by immunoprecipitation with NE-specific antibody” value ([2]; UC biopsy lysates)?
The value was “confirmed to be NE”.

What about the “labeling in active ulcerative colitis biopsies compared with healthy individuals” value ([2]; human colon mucosal biopsies, UC n=9, normal n=5) of the same molecule?
Its value is “significant increase in labeling”.

And the “number of species labeled in human mucosal lysates” value ([2]; in-gel fluorescence)?
The value was “three species were labeled”.

And the “labeling of 25-KDa proteins in mouse pancreas lysates (in-gel fluorescence)” value ([3]; 0.1, 0.5 and 1 µM)?
The value was “strongly labeled”.

And the “targets of the probe identified by immunoprecipitation” value ([3]; labeled mouse pancreas lysates, antibodies to NE, PE, Try3)?
The value was “combination of NE, pancreatic elastase (PE), and trypsin 3”.

What about the “ability to detect NE activity in tissue lysates compared between probes” value [4] of the same molecule?
Its value is “clearly superior to Cy5-V-DPP”.

What about the “binding to other species (off-target bands)” value [4] of the same molecule?
The value was “binding to several species in the 50-75-KDa range”.

And the “identity of the labeled band by immunoprecipitation with NE-specific antibody” value [4]?
Its value is “confirmed to be NE”.

And the “labeling of the 25-KDa band in healthy distal colons and proximal regions of healthy and inflamed colons” value [4]?
The value was “virtually absent”.

And the “labeling of the 25-KDa species in distal colon lysates of TNBS-treated mice” value [4]?
The value was “clear labeling of a single protein at 25-KDa”.

And the “species of the 25-KDa NE doublet labeled by the probe” value [4]?
The value was “Only the lower species”.

And the “labeling in tumor tissues versus normal tongue tissues” value ([5]; HSC-3 xenograft, two weeks)?
The value was “clear labeling of a 25-KDa species in tumor tissues, but not normal tongue tissues”.

And the “labeling of other high-molecular weight species in tumor/tongue lysates” value ([5]; unidentified species)?
The value was “abundantly labeled”.

What about the “identity of the major 25-KDa species by immunoblotting and immunoprecipitation” value [6] of the same molecule?
The value was “confirmed to be NE”.

What about the “labeling in infected lung tissue lysates compared with control lungs” value [6] of the same molecule?
Its value is “significantly increased”.
